Results from ChEMBL document CHEMBL1201862, “PubChem BioAssay data set” (2004).
Several values for one entry are separate records, joined by “and”; a condition that tells them apart may be missing. Identical values can stand only once. Activity calls are given as the source filed them. Peptide text beside a SMILES is read from it. * marks the point of attachment. Cbz = O=C(OCc1ccccc1)*; CH2Cl = ClC*

Tests used:
[1] = biological target: T1, Adenosylmethionine-8-amino-7-oxononanoate aminotransferase (Mycobacterium tuberculosis, UniProt P9WQ81); experiment: Mycobacterium tuberculosis BioA enzyme inhibitor Measured in Biochemical System Using Plate Reader - 2163-02_Inhibitor_Dose_CherryPick_Activity.; type: functional, Mycobacterium tuberculosis UT205
T1 sequence (P9WQ81 whole entry): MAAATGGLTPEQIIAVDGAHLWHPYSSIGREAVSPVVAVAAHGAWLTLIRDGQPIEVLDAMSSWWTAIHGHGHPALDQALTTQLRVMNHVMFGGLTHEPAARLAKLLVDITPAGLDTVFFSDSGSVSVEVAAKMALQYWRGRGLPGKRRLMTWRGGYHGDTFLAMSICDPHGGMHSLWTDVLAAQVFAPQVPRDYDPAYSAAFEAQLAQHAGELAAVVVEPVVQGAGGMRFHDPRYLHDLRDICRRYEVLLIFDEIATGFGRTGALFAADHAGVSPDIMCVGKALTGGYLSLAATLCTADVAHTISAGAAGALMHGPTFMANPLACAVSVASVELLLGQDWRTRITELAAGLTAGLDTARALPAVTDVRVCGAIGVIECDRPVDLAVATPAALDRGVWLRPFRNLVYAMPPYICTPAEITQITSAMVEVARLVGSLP

[2] = system: Streptococcus; experiment: Group A Streptococcus viability loss, dose response, counter-screen for streptokinase expression inhibitor project, luminescence, BacTiterGlo (AID 1915); type: functional, organism-based;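 further: potency for reduction of bacterial viability or growth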
[3] = system: Streptococcus sp. 'group A'; experiment: growth inhibition of control SK(-) GAS strain, dose response, counter-screen for streptokinase expression inhibitor project, luminescence, kanamycin, BacTiterGlo, confirmation (AID 1900); type: functional, organism-based
[4] = human group III sPLA2 inhibitors, dose response, biochemical, QFRET, IC50 (AID 743457);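 further: green fluorescence rise as the enzyme cleaves BODIPY PC-A2 in liposomes; potency for inhibition of the enzyme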
[5] = biological target: T2, Fatty acid synthase (Homo sapiens, UniProt P49327); experiment: FAS thioesterase domain inhibitors, dose response, biochemical, kinetic fluorescence intensity (AID 624326); type: functional;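 further: rate of fluorescence rise from hydrolysis of a fluorogenic O-methyl fluorescein ester substrate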
T2 sequence (P49327 whole entry, the tested form may be a part): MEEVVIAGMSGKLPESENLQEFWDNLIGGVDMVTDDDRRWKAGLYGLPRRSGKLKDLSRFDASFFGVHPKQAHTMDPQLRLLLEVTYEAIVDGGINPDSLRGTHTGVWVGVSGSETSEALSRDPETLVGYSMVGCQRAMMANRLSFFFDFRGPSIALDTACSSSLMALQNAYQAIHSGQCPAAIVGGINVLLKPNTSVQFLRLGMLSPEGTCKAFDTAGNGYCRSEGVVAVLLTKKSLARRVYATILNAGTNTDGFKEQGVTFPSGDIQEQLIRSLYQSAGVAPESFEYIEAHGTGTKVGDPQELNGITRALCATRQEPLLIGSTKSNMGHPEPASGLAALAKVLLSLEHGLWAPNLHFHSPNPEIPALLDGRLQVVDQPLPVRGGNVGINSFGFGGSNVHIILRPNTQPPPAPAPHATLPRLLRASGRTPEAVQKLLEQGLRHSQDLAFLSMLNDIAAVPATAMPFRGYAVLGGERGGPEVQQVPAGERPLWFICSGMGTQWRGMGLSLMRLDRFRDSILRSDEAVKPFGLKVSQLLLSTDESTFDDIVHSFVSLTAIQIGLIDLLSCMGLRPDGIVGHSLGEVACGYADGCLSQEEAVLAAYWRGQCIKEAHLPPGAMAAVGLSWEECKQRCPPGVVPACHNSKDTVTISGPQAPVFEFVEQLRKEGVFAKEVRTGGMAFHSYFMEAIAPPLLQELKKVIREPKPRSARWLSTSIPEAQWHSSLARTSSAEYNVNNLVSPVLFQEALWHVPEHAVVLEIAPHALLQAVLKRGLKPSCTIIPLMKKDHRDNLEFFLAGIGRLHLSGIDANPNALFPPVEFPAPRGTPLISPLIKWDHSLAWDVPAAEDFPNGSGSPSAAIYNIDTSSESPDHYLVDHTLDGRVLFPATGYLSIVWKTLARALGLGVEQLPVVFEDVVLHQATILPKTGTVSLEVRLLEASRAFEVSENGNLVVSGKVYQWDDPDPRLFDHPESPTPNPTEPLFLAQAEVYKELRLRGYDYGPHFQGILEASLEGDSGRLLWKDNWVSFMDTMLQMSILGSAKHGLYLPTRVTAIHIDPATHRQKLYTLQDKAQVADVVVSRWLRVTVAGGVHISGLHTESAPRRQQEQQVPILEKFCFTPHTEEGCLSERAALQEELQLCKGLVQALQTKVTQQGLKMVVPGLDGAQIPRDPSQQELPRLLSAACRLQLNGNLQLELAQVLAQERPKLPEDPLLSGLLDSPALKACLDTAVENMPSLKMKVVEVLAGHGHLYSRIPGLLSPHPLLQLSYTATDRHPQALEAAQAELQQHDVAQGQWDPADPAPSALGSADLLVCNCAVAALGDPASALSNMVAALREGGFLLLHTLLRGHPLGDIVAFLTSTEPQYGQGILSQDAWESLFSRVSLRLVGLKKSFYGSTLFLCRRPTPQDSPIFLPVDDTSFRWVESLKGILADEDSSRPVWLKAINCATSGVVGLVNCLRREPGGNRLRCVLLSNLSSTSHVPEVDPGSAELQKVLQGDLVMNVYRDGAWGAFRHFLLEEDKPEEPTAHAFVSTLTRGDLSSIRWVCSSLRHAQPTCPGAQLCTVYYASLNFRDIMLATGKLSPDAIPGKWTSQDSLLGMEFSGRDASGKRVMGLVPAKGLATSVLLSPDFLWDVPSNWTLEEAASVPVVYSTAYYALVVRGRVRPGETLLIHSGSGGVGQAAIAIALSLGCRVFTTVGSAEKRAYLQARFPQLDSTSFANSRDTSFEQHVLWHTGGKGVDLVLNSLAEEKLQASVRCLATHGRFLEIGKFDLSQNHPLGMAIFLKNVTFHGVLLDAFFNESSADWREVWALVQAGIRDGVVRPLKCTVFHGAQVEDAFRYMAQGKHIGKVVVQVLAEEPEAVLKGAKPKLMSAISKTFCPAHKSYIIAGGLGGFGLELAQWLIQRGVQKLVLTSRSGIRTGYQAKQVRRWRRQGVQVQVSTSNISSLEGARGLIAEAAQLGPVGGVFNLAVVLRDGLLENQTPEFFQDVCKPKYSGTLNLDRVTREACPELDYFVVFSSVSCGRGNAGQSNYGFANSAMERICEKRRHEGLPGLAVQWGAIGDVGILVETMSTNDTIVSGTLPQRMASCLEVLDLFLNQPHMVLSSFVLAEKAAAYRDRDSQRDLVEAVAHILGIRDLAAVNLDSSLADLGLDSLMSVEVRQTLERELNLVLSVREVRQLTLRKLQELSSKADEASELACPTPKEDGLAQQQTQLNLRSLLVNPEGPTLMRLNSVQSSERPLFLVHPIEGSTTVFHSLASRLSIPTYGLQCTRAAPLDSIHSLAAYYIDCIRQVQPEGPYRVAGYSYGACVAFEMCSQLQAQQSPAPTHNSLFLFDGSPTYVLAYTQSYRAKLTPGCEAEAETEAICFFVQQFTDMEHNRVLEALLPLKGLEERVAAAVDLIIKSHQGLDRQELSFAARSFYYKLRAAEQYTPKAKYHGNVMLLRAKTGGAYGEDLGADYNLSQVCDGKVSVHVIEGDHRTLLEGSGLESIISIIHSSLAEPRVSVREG

[6] = insulin promoter down-regulators in MIN6 cells, imaging, high-content screening, mouse beta cells (AID 1628); type: functional
[7] = cytotoxicity in MIN6 insulinoma cells, dose response, cytotoxicity control, cell-based, mouse insulinoma (AID 2122); type: functional;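 further: confirmatory high-throughput counterscreen run to flag cytotoxic compounds; mouse MIN-6 beta cells carrying an insulin promoter eGFP reporter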
[8] = biological target: T2, Fatty acid synthase; experiment: FAS thioesterase domain inhibitors, dose response, biochemical, endpoint fluorescence intensity, uHTS hits (AID 624327); type: functional;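 further: fluorescence from hydrolysis of an O-methyl fluorescein acyl ester substrate by the enzyme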
[9] = biological target: 5-hydroxytryptamine receptor 2A (Mus musculus, UniProt P35363); type: functional, cell-based;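 further: CHO-K1 cells with tagged receptor and beta-arrestin; agonist potency measured as compound-induced activation of the receptor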
5-hydroxytryptamine receptor 2A, sequence (P35363 whole entry): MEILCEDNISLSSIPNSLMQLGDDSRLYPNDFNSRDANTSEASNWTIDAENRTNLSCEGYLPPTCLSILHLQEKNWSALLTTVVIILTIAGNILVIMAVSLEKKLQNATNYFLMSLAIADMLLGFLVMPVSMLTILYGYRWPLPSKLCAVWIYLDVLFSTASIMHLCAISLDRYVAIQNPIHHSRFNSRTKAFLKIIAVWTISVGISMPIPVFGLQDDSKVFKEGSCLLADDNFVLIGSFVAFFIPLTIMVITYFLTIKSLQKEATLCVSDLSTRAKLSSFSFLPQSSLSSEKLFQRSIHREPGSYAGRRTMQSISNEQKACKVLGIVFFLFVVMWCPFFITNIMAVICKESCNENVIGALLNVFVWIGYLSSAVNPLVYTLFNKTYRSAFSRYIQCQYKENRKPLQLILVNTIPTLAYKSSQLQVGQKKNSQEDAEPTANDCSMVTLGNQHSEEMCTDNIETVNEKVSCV

[10] = biological target: Mu-type opioid receptor (Homo sapiens, UniProt P35372); type: functional, cell-based;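 further: U2OS cells with beta-arrestin recruitment to OPRM1 by beta-gal complementation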
Mu-type opioid receptor, sequence (P35372 whole entry): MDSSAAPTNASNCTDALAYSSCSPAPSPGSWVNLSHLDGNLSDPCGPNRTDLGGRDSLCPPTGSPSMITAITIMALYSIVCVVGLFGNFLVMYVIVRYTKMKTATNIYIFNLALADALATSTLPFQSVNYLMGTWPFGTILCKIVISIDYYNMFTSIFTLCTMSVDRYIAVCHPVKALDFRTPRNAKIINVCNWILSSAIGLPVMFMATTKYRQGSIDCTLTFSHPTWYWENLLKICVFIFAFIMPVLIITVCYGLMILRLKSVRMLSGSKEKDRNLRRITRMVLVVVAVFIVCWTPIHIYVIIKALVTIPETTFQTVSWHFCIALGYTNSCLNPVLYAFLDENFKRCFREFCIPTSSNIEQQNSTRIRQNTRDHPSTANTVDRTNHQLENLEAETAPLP

[11] = biological target: T3, ATP-dependent translocase ABCB1 (Homo sapiens, UniProt P08183); experiment: ABCB1 efflux inhibitor potency, dose response, Jurkat-DNR cells, JC-1, flow cytometry, set 2 (AID 504569); type: functional; settings: read-out: EC50_MICROM_;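 further: potency of pump inhibitors that raise cellular JC-1 green fluorescence up to the nicardipine level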
T3 sequence (P08183 whole entry): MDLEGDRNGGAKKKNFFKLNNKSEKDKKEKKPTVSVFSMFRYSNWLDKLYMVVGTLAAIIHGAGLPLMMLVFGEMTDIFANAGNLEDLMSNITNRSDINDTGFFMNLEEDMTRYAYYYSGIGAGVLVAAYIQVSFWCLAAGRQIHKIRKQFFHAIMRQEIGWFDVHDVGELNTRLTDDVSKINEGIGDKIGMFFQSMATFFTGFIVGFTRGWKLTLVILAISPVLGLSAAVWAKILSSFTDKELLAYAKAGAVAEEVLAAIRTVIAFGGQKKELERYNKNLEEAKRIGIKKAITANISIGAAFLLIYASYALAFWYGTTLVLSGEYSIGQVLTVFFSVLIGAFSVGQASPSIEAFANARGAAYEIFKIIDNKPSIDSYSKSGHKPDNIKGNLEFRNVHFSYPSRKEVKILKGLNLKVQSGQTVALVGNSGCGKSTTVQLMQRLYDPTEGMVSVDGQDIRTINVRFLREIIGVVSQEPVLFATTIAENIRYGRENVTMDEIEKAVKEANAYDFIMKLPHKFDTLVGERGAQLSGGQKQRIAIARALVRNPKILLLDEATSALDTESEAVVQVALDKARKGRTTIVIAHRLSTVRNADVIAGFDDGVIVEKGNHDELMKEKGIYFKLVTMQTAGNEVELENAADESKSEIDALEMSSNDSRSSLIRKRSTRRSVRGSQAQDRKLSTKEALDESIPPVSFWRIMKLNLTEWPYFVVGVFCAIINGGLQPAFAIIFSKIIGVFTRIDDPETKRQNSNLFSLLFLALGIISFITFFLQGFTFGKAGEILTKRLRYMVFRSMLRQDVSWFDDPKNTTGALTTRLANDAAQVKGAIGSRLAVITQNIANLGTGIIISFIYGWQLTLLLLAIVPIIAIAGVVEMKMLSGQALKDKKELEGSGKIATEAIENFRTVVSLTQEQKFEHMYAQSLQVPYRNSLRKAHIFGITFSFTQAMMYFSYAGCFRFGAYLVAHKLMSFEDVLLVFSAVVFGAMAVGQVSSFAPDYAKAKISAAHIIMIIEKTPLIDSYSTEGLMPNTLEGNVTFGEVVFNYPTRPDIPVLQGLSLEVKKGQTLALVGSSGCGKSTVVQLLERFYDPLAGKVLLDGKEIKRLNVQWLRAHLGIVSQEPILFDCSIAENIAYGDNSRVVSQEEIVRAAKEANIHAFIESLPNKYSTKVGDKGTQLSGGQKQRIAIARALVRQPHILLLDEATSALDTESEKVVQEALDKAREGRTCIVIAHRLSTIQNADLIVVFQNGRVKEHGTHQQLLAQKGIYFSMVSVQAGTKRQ

[12] = biological target: T3, ATP-dependent translocase ABCB1; experiment: ABCG2 efflux pump inhibitor potency, dose response, Ig-MXP3 cells, JC-1, flow cytometry, set 2 (AID 504566); type: functional; settings: read-out: EC50_MICROM_;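 further: flow cytometry median green fluorescence of retained JC-1 dye; potency of efflux pump inhibition measured as rising substrate retention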
[13] = system: Vero; experiment: cells; type: functional, cell-based; settings: Chlorocebus sabaeus
[14] = IGROV1 ovarian cancer cell cytotoxicity, dose response, PAX8 inhibitor project, plate reader, dry powder samples (AID 743043); type: functional, cell-based; settings: IGROV-1
[15] = biological target: Paired box protein Pax-8 (Homo sapiens, UniProt Q06710); experiment: inhibitors of PAX8-driven TPO luciferase reporter, dose response, RMG-I cells, cherry-pick (AID 687027); type: functional, cell-based;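 further: luciferase reporter driven by Pax8 target thyroperoxidase promoter measured by SteadyGlo luminescence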
Paired box protein Pax-8, sequence (Q06710 whole entry): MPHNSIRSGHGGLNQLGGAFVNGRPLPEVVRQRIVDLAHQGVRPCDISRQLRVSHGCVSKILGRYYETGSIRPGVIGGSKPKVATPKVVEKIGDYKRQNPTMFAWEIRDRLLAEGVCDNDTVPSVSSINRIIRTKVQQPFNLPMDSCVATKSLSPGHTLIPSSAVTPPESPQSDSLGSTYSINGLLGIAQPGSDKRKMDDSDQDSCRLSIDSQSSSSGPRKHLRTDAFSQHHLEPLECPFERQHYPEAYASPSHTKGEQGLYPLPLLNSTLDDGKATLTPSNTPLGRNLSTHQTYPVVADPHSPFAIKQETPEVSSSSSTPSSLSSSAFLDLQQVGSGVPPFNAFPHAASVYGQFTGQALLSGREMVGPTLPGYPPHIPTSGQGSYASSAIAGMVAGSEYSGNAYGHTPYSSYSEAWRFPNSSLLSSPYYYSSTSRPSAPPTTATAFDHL

[16] = cytotoxicity in OVCAR8 ovarian cancer cells, dose response, PAX8 project, cell-based, plate reader, dry powder samples (AID 743197); type: functional; settings: OVCAR-8
[17] = NIH:OVCAR-3 ovarian cancer cell cytotoxicity, dose response, PAX8 inhibitor project, plate reader, dry powder samples (AID 743044); type: functional, cell-based
[18] = system: Vero; experiment: cells; type: functional; settings: Chlorocebus sabaeus
[19] = HEK293T cytotoxicity, dose response, cytotoxicity control for miR-122 modulator project, cell-based, inhibitor set, cherry-pick, set 2 (AID 720697); type: functional
[20] = biological target: DNA dC->dU-editing enzyme APOBEC-3A (Homo sapiens, UniProt P31941); experiment: Dose Response confirmation of small molecule APOBEC3A DNA Deaminase Inhibitors via a fluorescence-based single-stranded DNA deaminase assay. [Related pubchem assays (depositor defined):AID493011, AID493024]; type: functional
[21] = biological target: DNA dC->dU-editing enzyme APOBEC-3G (Homo sapiens, UniProt Q9HC16); type: functional;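 further: Dose-response counterscreen measuring inhibition of APOBEC3G DNA deaminase activity, run while confirming APOBEC3A inhibitors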
[22] = cells
[23] = HEp-2 cell cytotoxicity, dose response, cytotoxicity control for RSV inhibitor project, HTS (AID 2410); type: functional; settings: human respiratory syncytial virus

For `CCNC(=O)C[C@H]1CC[C@@H]2[C@@H](COc3ccc(NC(=O)Nc4cccc(F)c4)cc3C(=O)N2C)O1`, the AC50 [1] was 4.35 µM (active).
In the case of `COc1cc(C(=O)NNC(=S)NC(=O)c2ccc3c(c2)OCO3)cc(OC)c1OC`, the EC50 [2] is reported as 3.37 µM (active), the EC50 [3] is reported as 1.36 µM (active) and the IC50 [4] is reported as > 122 µM (inactive).
For `O=C(CNc1cc(S(=O)(=O)N2CCCC2)ccc1OCC(F)(F)F)Nc1ccc(SC(F)F)cc1`, the IC50 [5] was 2.98 µM (active), the IC50 [6] was 2.54 µM (active) and the IC50 [7] was 1.85 µM (active). The IC50 [8] was 6.37 µM (active).
For `COc1ccc(CN2CCN(C(=O)c3ccco3)CC2)c(OC)c1OC`, the EC50 [9] was 6.39 µM (active) and the EC50 [10] was 92.5 µM (inactive).
For `O=C(c1ccncc1)N1CCN(c2cc(-c3ccccc3)nc3cc(-c4cccc(Cl)c4)nn23)CC1`, the EC50 [11] was 950 nM (active) and the EC50 [12] was 1.19 µM (active).
With `CN(c1ccc(OCC(=O)Nc2ccccc2C(=O)O)cc1)S(=O)(=O)c1ccc(Cl)cc1` the IC50 [13] was 20.1 µM (active).
In the case of `Clc1ccc(CN2CCN(c3ccccc3)CC2)cn1`, the EC50 [9] is reported as 5.22 µM (active) and the EC50 [10] is reported as 92.5 µM (inactive).
For `COc1cccc(-c2ccc3c(c2)[C@@H]2[C@@H](CCN2S(=O)(=O)c2ccccc2OC)[C@H](CO)N3C)c1`, the AC50 [14] was 50.6 µM (active), the AC50 [15] was 10.3 µM (active) and the AC50 [16] was 27.8 µM (active). For the same compound, the AC50 [17] was 18 µM (active).
For `CC(C)CC(NC(=O)OCc1ccccc1)C(=O)NC(Cc1ccccc1)C(=O)CCl` (stereo not drawn) (Cbz-Leu-Phe-CH2Cl; configuration not given here), the IC50 [13] was 20.5 µM (active) and the CC50 [18] was 21.5 µM (active).
In the case of `O=C(NNC(=S)Nc1ccccc1)c1ccc2ncccc2c1`, the IC50 [4] is reported as > 122 µM (inactive).
With `CC(N)Cc1c[nH]c2ccc(Cl)cc12` (configuration not stated) the EC50 [9] was 1.64 µM (active) and the EC50 [10] was 92.5 µM (inactive).
In the case of `O=C(c1ccccc1)N1CCN(c2cc(-c3ccccc3)nc3cc(-c4cccc(Cl)c4)nn23)CC1`, the EC50 [11] is reported as 2.26 µM (active) and 4 µM (active) and the EC50 [12] is reported as 1.05 µM (active) and 1.81 µM (active).
In the case of `CN1C(=O)c2cc(NC(=O)c3cccs3)ccc2OC[C@H]2O[C@@H](CC(=O)NCCN3CCCCC3)CC[C@@H]21`, the AC50 [19] is reported as 4.24 µM (active).
For `CCN1/C(=C\C(C)=O)Sc2ccc(OC)cc21`, the IC50 [20] was 2.69 µM (active) and the IC50 [21] was 2.89 µM (active).
For `O=C(O)c1cccnc1Nc1ccc(Cl)cc1`, the IC50 [13] was 17.3 µM (active), the IC50 [22] was 7.51 µM (active) and the CC50 [23] was 14.7 µM (active).
